Measured values taken from patent US6482609B1, “Isolated human EDG-4 receptor and polynucletide encoding said receptor” (priority 1997, dated 2002).
pEC50: −log10 of the molar value. Where two headings read alike, the source gives them in different places.

Legend:
human EDG-4 = human EDG-4 (Homo sapiens, UniProt O95136); experiment: SRE luciferase reporter in 293-EBNA cells, human EDG-4; type: cell-based; details: for pEC50: 293-EBNA expressing human EDG-4, luciferase after 6 hr, pcDNA3 response subtracted; for Agonist character at EDG-4: conclusion from the reporter assay of Table 2; for Rank (EMax): rank of efficacy among compounds tested
Description: NE-κB activates gene expression by binding to specific DNA sequences found in the promoters of genes regulated by this inflammation-related transcription factor. […] The SRE reporter was identical to the NF-κB reporter, except that the NF-κB binding sites were replaced with 2 SRE sites. The new reporter was called 2XSREtk-p4Luc-zeo.
The protocol described in Example 11 for Assay 1 was followed except for the following changes:
2) SRE Cotransfection: 0.5 μg of 2XSREtk-p4Luc-zeo reporter DNA and 3.5 μg pcDNA3, EDG-1, EDG-3 (pC3-hE3HP2, different from the clone used in Assay 2 of Example 11) or the newly cloned human EDG-4 (pC3-hedg4#36); NF-κB Cotransfection: 2 μg 6XNFκBtk-p4Luc-zeo reporter DNA and 2.0 μg pcDNA3, EDG-1, EDG-3 (pC3-hE3HP2), or EDG-4 (pC3-hedg4#36). Expression plasmid and reporter plasmid DNA samples were combined and diluted in 750 μl of DMEM/F12 (serum free media) and 20 μl Plus Reagent (Lipofectamine Plus Kit, Life Technologies Cat. 10964-013), and incubated at room temperature for 15 min.
1) Media was removed and cells treated with compounds diluted in DMEM/F12 media.
2) The cells were treated for 6 hours.
3) Luciferase assay was performed.
Transfection was accomplished using the Lipofectamine Plus kit (Life Technologies, Cat. 10964-013), using the manufacturer's recommended conditions.
(§1) Transfection of EDG-4, expression, pretreatment and treatment of 293-EBNA cells expressing recombinant human EDG-4 was carried out essentially as described in “Example 11. […] Results were tabulated in Microsoft Excel, and analyzed with GraphPad Prism software. […] The luciferase response was expressed as fold response, after subtracting any endogenous response in pcDNA3-transfected cells at a given concentration of compound.

[1] = test system: Human Umbilical Vein Endothelial Cells (HUVEC); experiment: IL-8 ELISA on primary cultured HUVEC treated with lysolipids; type: cell-based; details: 6 hr treatment
Description: Plating, Pretreatment and Treatment of HUVEC
Procedures were followed as detailed above in “Procedure #1 for HeLa Cells” with the following exceptions:
Cells were plated at 20,000 cells/well into 24-well plates. The next day, cells were serum-starved overnight in EBM medium (Clonetics) with 0.5% FBS, and then treated in EBM without FBS for 6 hr with the following lysolipids:
Supematants were collected and IL-8 levels were deternined using ELISA as described previously.

[2] = test system: 293-EBNA cells expressing recombinant human EDG-4; experiment: Cytotoxicity seen in the EDG-4 agonist reporter assay (293-EBNA cells); type: cell-based
Description: as §1

HeLa cells [3] = experiment: IL-8 ELISA on supernatants of treated HeLa cells; type: cell-based, human; details: for Inhibition of IL-8 response to S1P by antioxidants: NDGA 10 or 40 μM, NAC 30 mM
Description: Procedure #1 For HeLa Cells
Cells: HeLa (adenocarcinoma, human)
Media: DMEM/F12+10%FBS adherent
1) Cells were seeded at 0.2×10^6 cells/well in 6-well plates.
2) 1.5 ml 0.5% FBS media was added to each well.
1) Made up all required solutions in 0.5% FBS media (control). Handling of […] for use in NF-κB experiments requires that sonication, commonly used to resuspend LPA, not be done; NF-κB may be activated by lipid peroxides created through vigorous frothing.
3) 1.5 ml appropriate treatments were added to each well.
5) After the specified time cell supernatants were collected into 1.5 ml eppendorf tubes, spun down at 14000 rpm for 5 minutes and stored at −20° C. for later ELISA determination.
D. Detection of Interleukin-8 (IL-8) using an IL-8 ELISA (Enzyme-Linked InimunoSorbent Assay).
1) The Quantikine Human IL-8 ImmunoAssay Kit was obtained from R&D Systems (Cat. D8050).
4) The assay procedure was followed as recommended in the kit for cell culture supernatant samples.
5) ELISA was performed on 50 μl samples of culture supernatant and duplicate samples were measured for each well. Each treatment was performed on triplicate wells.
6) Plates were read on UVmax kinetic microplate reader (Molecular Devices), set to 450 nm and correction set to 575 nm, using Wsoftmax software version 2.34.
Procedure #2 For HeLa Cells
1) Cells were seeded at 2.5×10^4 cells/well in 24-well plates.
2) 0.5 ml 0.5% FBS media was added to all wells not requiring PTX pre-treatment.
3) For wells requiring PTX; 0.5 ml 0.5% FBS media containing 50 ng/ml PTX (1 volume PTX (RBI Cat. P140): 1 volume DTT, incubate 37° C. for 30 minutes then dilute to 50 ng/ml) was added.
Follow Procedure #2 For HeLa Cells with the following exceptions:
Concentrations for LPC, LPE, LPG, LPS, sphingosine and SM used were 10, 50, 100, 1000, and 5000 nM. Concentrations for LPI, lyso-PAF and lysosulfatide used were 0.3 and 3 μM.
2) A 30 minute pre-treatment at 37° C./5%CO2 of 0.5 ml of suramin was done to all wells except control, any PTX and ET-18-OCH3 wells before step 3 of section C.

HeLa cells [4] = experiment: Cytotoxicity (viable cell count) in HeLa cells; type: cell-based, human; details: 40 μM
Source text: Follow Procedure #2 For HeLa Cells with the following exceptions: […]

rat edg4 = rat edg4 (Rattus norvegicus, UniProt P47752); experiment: NF-κB-tk-p4Luc luciferase reporter in 293-EBNA cells, rat EDG-4; type: cell-based; set-up: expressed in transfected cells; host or cells: 293-EBNA; details: pC3-redg4, Assay #1, 24 hrs
Description: Monolayer Transient Transfection Protocol for 293-EBNA
1) 150 mm plates of 293-EBNA obtained from Invitrogen (Cat. R620-07) with a confluency of ˜80% were used for transfection.
2) 6.6 μg NF-κB-tk-p4Luc reporter DNA and 6.6 μg of pC3-redg4 (expressing rat EDG-4), or pcDNA3 DNA was diluted in 500 μl OPTI-MEM (Gibco; Cat. 31985-062)
3) 96.8 μl Lipofectamine (Gibco; Cat. 18324-020) was diluted in 500 μl of OPTI-MEM.
6) 6 ml OPTI-MEM was added to each transfection tube and this was added to a plate of 293-EBNA cells. The plates were left for 4 hrs at 37° C. in a 5% CO2 incubator.
2) 0.02×10^6 cells were plated per well of a 96-well Blackview plate coated with polyD-lysine. No cells were plated in the outside wells of the 96well plate. Two 96-well plates were seeded for each transfection.
1) Cells were washed with PBS and 140 μl serum-free media (SFM) added to each well. Plates were incubated in 37° C. incubator for 6 hrs.
2) After 6 hrs, media was removed and cells treated with compounds diluted in 0.5% FBS media (140 μl added to each well).
3) Cells were treated for 24 hrs.
1) Luclite kit (Packard; Cat. 6016911) was used for luciferase assay. All reagents were brought to room temperature before use.
3) 50 μl 0.5M HEPES pH 7.8 buffer (1 mM MgCl2, 1 mM CaCl2) was added to all wells of 96-well plate. Black adhesive backing (Polyfitronics) was aligned to the bottom of the viewplate.
4) Luclite substrate was made up by adding 10 ml substrate diluent to 1 vial lyophilized substrate. Reconstituted substrate was kept under a dark container. 50 μl substrate was added to each well.
7) After incubation, plates were counted in a 12-detector Packard Top Count on a program without dark delay.
Transient Transfection Protocol for 293-EBNA
The above protocol for assay 1 was followed except for the following changes:
2) 3 μg NFκB-tk-p4Luc reporter DNA and 3 μg pC3-hedg1, pC3-hedg3, pC3-redg4, pC3-hedg5 or pcDNA3 DNA was diluted in 240 μl OPTI-MEM (Gibco; Cat. 31985-062)
1) 0.01×10^6 cells were plated per well of a 96-well Blackview plate coated with polyD-lysine. No cells were plated in the outside wells of the 96-well plate.

HL-60 cells = experiment: IL-8 ELISA on HL-60 cells; type: cell-based, human; details: 1, 6 or 24 hr, S1P or LPA up to 3 μM, TNF-α 10 ng/ml
Description: Procedure for HL-60 Cells:
Cells: HL-60 (promyelocytic, human) suspension cells
Media: RPMI 1640 medium with 2 mM L-glutamine adjusted to contain 4.5 g/L glucose, 10 mM HEPES, and 1.0 mM sodium pyruvate+10% FBS
1) Cells were plated at a density of 0.25×10^6 cells/ml.
2) Cell pellcts were resuspended in 0.5% FBS media at a density of approximately 1×10^6 cells/ml.
1) Made up all required solutions in 0.5% FBS media (control).
2) 1.4 ml appropriate treatments were added to each well of a 6-well plate.
5) 100 μl cell suspension was added to each well.
7) After the specified time cell supematants were collected into 1.5 ml eppendorf tubes, spun down at 14000 rpm for 5 minutes and stored at −20° C.
D. Refer to Procedure #1 For HeLa Cells (D).

[5] = S1P 1 μM, 30 minute pre-treatment

Sequence of rat edg4 (P47752 whole entry): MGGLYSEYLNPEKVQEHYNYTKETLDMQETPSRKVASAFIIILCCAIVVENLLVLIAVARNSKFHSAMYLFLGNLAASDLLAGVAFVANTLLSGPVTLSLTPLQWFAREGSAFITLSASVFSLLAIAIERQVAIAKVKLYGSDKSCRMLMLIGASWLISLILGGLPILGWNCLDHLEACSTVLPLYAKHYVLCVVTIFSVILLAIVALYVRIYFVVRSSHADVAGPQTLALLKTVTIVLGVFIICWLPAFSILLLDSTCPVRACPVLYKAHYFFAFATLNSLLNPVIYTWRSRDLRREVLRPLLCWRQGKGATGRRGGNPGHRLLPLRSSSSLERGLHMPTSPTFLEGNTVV

In the case of `CCCCCCCCCCCCCCC[C@@H](O)[C@@H](N)COP(=O)(O)O` [Dihydro-S1P, dihydrosphingosine 1-phosphate], the pEC50 (human EDG-4) was 6.28, the “Agonist character at EDG-4” value (human EDG-4) was “partial agonist” and the “Max. Fold” value (human EDG-4; fold luciferase response, 6 hr) was 2.84. The “Rank (EMax)” value (human EDG-4) was 3 and the “EMax (Percent)” value (human EDG-4; relative efficacy, 6 hr) was 49.2%.
With `CCCCCCCCCCCCCCCCCCOCC(COP(=O)([O-])OCC[N+](C)(C)C)OC` (stereo not drawn) [Edelfosine] the “IL-8 response (qualitative)” value [1] was “no response”.
For `CCCCCCCCCCCCC/C=C/[C@@H](O)C(N)CO[C@@H]1O[C@H](CO)[C@@H](O)[C@H](O)[C@@H]1O` (stereo partly drawn) [Glucospychosine, glucopsychosine], the “Concentration at which cytotoxicity was seen” value [2] was “^aCytotoxicity was seen at 10 μM or higher concentrations, preventing quantitative determination of EC50 or EMax”, the “Cytotoxicity (qualitative)” value [2] was “cytotoxicity at higher concentrations” and the pEC50 (human EDG-4) was less than 5.00. For the same compound, the “Agonist character at EDG-4” value (human EDG-4) was “poor potency and efficacy” and the “Rank (EMax)” value (human EDG-4) was 4.
For `CC(=O)N[C@@H](CS)C(=O)O` [NAC], the “Inhibition of IL-8 response to S1P by antioxidants” value (HeLa cells [3]; [5]) was “significantly inhibited”.
In the case of `CC(Cc1ccc(O)c(O)c1)C(C)Cc1ccc(O)c(O)c1` (stereo not drawn) [NDGA], the “Relative potency of antioxidants in inhibiting IL-8 response to S1P” value (HeLa cells [3]; S1P 1 μM) was “more potent than the hydrophilic NAC”, the “Inhibition of IL-8 response to S1P at 40 μM” value (HeLa cells [3]; S1P 1 μM, NDGA 40 μM) was “completely inhibited the IL-8 response to S1P” and the “Inhibition of IL-8 response to S1P by antioxidants” value (HeLa cells [3]; [5]) was “significantly inhibited”. For the same compound, the Toxicity (HeLa cells [4]) was “some toxicity”.
For `CCCCCCCCCCCCC/C=C/[C@@H](O)[C@@H](N)CO[C@@H]1O[C@H](CO)[C@H](O)[C@H](O)[C@H]1O` [Psychosine], the “Cytotoxicity (qualitative)” value ([2]; higher concentrations) was “cytotoxicity at higher concentrations”, the pEC50 (human EDG-4) was less than 5.00 and the “Agonist character at EDG-4” value (human EDG-4) was “poor potency and efficacy”. The “Rank (EMax)” value (human EDG-4) was 5 and the “IL-8 response (qualitative)” value [1] was “Marginal increases”.
In the case of `Cc1ccc(C(=O)Nc2ccc(S(=O)(=O)O)c3cc(S(=O)(=O)O)cc(S(=O)(=O)O)c23)cc1NC(=O)c1cccc(NC(=O)Nc2cccc(C(=O)Nc3cc(C(=O)Nc4ccc(S(=O)(=O)O)c5cc(S(=O)(=O)O)cc(S(=O)(=O)O)c45)ccc3C)c2)c1` [Suramin], the “Inhibition of the IL-8 response to edelfosine” value (HeLa cells [3]; PTX 50 ng/ml or suramin 1 mg/ml) was “potently inhibited” and the “Effect of suramin on IL-8 response to S1P” value (HeLa cells [3]; S1P 1 μM, suramin 1 mg/ml, 30 minute pre-treatment) was “extremely effective in blunting the IL-8 response to S1P”.
For `CCCCCCCCCCCCCC(=O)O[C@@H]1[C@@H](C)[C@@]2(O)[C@@H](C=C(CO)C[C@]3(O)C(=O)C(C)=C[C@@H]23)[C@H]2C(C)(C)[C@]12OC(C)=O` [TPA], the “NF-κB reporter induction (qualitative)” value (rat edg4) was “strongly induced the NF-κB reporter”.
In the case of `CCCCC/C=C\C/C=C\C/C=C\C/C=C\CCCC(=O)NCCO` [anandamide], the “IL-8 response (qualitative)” value [1] was “no response”.
`CCCCCCCCCCCCC/C=C/[C@@H](O)[C@@H](N)CO` [sphingosine, Sphingosine] was tested, and the “IL-8 production (ligand selectivity)” value (HeLa cells [3]; 6 hours, 10-5000 nM or 0.3 and 3 μM) was “lack of response”.
For TNF-α, the IL-8 release (HL-60 cells) was “releasing IL-8”.
